The text below walks through data of US11925618B2, “Pharmaceutical combination for the treatment of cancer” (Piramal Enterprises Limited, priority 2014, dated 2024).

Usually EC50 stands for the midpoint of the concentration-response curve.

Where two headings read alike, the source gives them in different places.

Holding throughout (type): cell-based
One experiment deals with FaDu cell lines. Put plainly: CGI (cell growth inhibition, propidium iodide) assay in FaDu cell lines. As for the experimental part:
(§1) The media was removed from the flask containing cells and 2-3 mL of sterile 1×DPBS was added to the flask. The DPBS was then removed from the flask and 2 mL of trypsin was added to the flask. The flask was kept in the incubator for a few seconds. The cells were then checked whether dislodged and if dislodged, 2 mL of serum was added to the flask. To the flask was then added 5-6 mL of media and swirled. The media was collected from the flask and centrifuged at 600 rpm for 10 min.
(§2) The supernatant solution was decanted and the pellet was re-suspended in 10 mL of media. To a 1.7 mL MCT; 50 μL of tryphan blue, 40 μL of media and 10 μL of cell suspension were added. The solution was then vortexed and 10 μL of this solution was loaded on a hemocytometer. The cells were counted in hemocytometer chambers and further calculated to get a count of ≥3000 cells/well/200 μL.
(§3) The cell stock was prepared using respective media and FBS, and 200 μL of the cell stock was added to each well (except media control wells) of white delta treated 96 well plate using a multi-channel pipette. To the media control wells, 200 μL of media was added. The plates were then incubated at 37° C. for 12-16 h.
(§4) The drug (the therapeutic agent) i.e. the CDK inhibitor and the antioxidant enzyme inhibitor were separately diluted to 10 folds using DMSO. The media of the plates was changed before the addition of drug to the plates and these plates were then placed in the incubator. 1 μL of CDK inhibitor and antioxidant enzyme inhibitor was added simultaneously to the respective wells and placed on the plate shaker for 15-30 mins. The plates were then placed back in incubator for 72 h or the time of incubation as decided.
(§5) 200 μL of media from each well was gently aspirated and then added 100 μL of 1×DPBS at room temperature to each well. The working stock of PI (stock 1 mg/mL) was prepared using 140 μL of PI and 20 mL of 1×DPBS for one plate. Then 1×DPBS was removed from the wells and 200 μL of PI working stock was added to each well. These plates were kept in dark for 5-10 min at room temperature on a shaker, after which the plates were stored at −80° C. until reading of the plate.
(§6) The plate was read in Spectramax fluorescence excitation maximum is 535 nm and the emission maximum is 617 nm.
Cell lines: The cell lines of FaDu for head and neck squamous cell carcinomas (HNSCC) obtained from ATCC (American Tissue type Culture Collection), USA were used in this study.
The analysis of combination index (CI) and cell growth inhibition was carried out using CGI assay method. […]
The combination studies of CDK inhibitor with TrxR inhibitor, auranofin was carried out at 12, 24, 48 and 72 h and the time point for which optimum synergy was obtained was determined. […]

For the next experiment, the system named is MDA-MB-231 cell lines. In words: CGI (cell growth inhibition, propidium iodide) assay in MDA-MB-231 cell lines. The note with it: determined at 72 h. Here is the method:
as §1, §2, §3, §4, §5, §6
Cell lines: The cell lines of MDA-MB-231 for triple negative breast cancer (TNBC) obtained from ATCC (American Tissue type Culture Collection), USA were used in this study.
The analysis of combination index and cell growth inhibition was carried out using CGI assay method. […]
The combination studies of CDK inhibitor with each of the TrxR inhibitors, auranofin, ebselen and ATO was carried out at 12, 24, 48 and 72 h and the time point for which optimum synergy was obtained was determined. […]

Experiment [1] deals with ROS production in FaDu cells. In words: Cellular ROS detection assay using DCFDA. The note with it: single agent. Here is the method:
as §1
The supernatant solution was decanted and the pellet was re-suspended in 10 mL of media. To a 1.7 mL MCT; 50 μL of tryphan blue, 40 μL of media and 10 μL of cell suspension were added. The solution was then vortexed and 10 μL of this solution was loaded on a hemocytometer. The cells were counted in hemocytometer chambers and further calculated to get a count of ≥25000 cells/well/200 μL. […]
The plate was read in Spectamax fluoroscence excitation maximum is 485 nm and the emission maximum is 535 nm. […]
The […] cells were treated with various concentrations (μM) of auranofin or voruciclib alone or in combination. […] The treated FaDu/MDAMB-431 cells were analyzed on a fluorescent plate reader vis-a-vis the cells of positive control which were treated with 50 μM tert-butyl hydrogen peroxide (TBHP). […]

The subject of experiment [2] is Thioredoxin Reductase (TrxR). Put plainly: TrxR activity assay (DTNB reduction) in FaDu cell lysates. The note with it: FaDu cells, DTNB reduction with or without ATM. Here is the method:
• (i) Cell lines: The cell lines of FaDu for head and neck squamous cell carcinomas (HNSCC) obtained from ATCC (American Tissue type Culture Collection), USA. • (ii) DTNB: Dithio nitro benzoic acid • (iii) ATM: Aurothiomalate
TrxR assay was conducted in six-well plates with 1M cells per well. The cells were treated with various concentrations of auranofin or voruciclib and in combination of both. The TrxR activity was measured in cell lysates using DTNB (Dithio nitro benzoic acid). The DINS was reduced to TNB (Thio nito benzoic acid) with or without a specific TrxR inhibitor, Aurothiomalate (ATM). The TrxR activity was calculated based on the difference in slope obtained from linear kinetic of DTNB reduction with or without ATM treatment.
The effect of auranofin and voruciclib combination on TrxR activity assay in FaDu cells are depicted in FIG. 16. The data is represented as mean±SEM (N=2) of % TrxR activity (Y-axis) and various concentration (μM) of Auranofin or voruciclib or combination of both (X-axis); PC—Positive control, C—Vehicle control.

Consider `CN1CC[C@@H](c2c(O)cc(O)c3c(=O)cc(-c4ccc(C(F)(F)F)cc4Cl)oc23)[C@@H]1CO.Cl` [Voruciclib, (+)-2-[2-Chloro-4-(trifluoromethyl)phenyl]-5,7-dihydroxy-8-[(2R,3S)-2-(hydroxymethyl)-1-methylpyrrolidin-3-yl]-4H-chromen-4-one hydrochloride], for which the EC50 worked out at 2.04 µM with FaDu cell lines (Homo sapiens, FaDu cell lines, determined at 48 h, read-out: EC50) and 2.3 µM in the experiment on MDA-MB-231 cell lines (Homo sapiens). The “increase in ROS level as compared to untreated control” value in experiment [1] was approximately 80%. Moreover, the “effect on TrxR activity” value in experiment [2] is “no effect”.

Consider `CC(=O)OC[C@H]1O[C@@H]([S-])[C@H](OC(C)=O)[C@@H](OC(C)=O)[C@@H]1OC(C)=O.CCP(CC)CC.[Au+]` [Auranofin], for which the EC50 in the experiment on FaDu cell lines (FaDu cell lines, determined at 48 h, read-out: EC50) worked out at 0.15 µM; in the experiment with MDA-MB-231 cell lines, 0.15 µM. Further, the “increase in ROS level as compared to untreated control” value in experiment [1] is recorded as approximately 100%. The “effect on TrxR activity” value in experiment [2] was “concentration dependent reduction”.

Regarding `O=c1c2ccccc2[se]n1-c1ccccc1` [Ebselen], the EC50 in the experiment with FaDu cell lines (Homo sapiens, FaDu, 72 h) amounted to 4.02 µM; in the experiment with MDA-MB-231 cell lines (Homo sapiens), 3.89 µM.

In the case of Arsenic trioxide [ATO], the EC50 in the experiment with FaDu cell lines (FaDu cell lines, determined at 72 h, read-out: EC50) stood at 4.87 µM; with MDA-MB-231 cell lines, 5.19 µM.
